The text below walks through data of ChEMBL document CHEMBL6177988, “Design, synthesis, biophysical and biological evaluation of original condensed pyrrolopyrimidine and pyrrolopyridine ligands as anti-SARS-CoV-2 agents targeting G4” (Eur J Med Chem, 2025).

Where only a bound is given, the exact number is not on record here.

The subject of data set [1] is Quadruplex DNA. Kind of data set: Thermal stabilization of human telomeric G-quadruplex F21T DNA (FAM-5'-GGGTTAGGGTTAGGGTTAGGG-3'-TAMRA) assessed as change in half-width of melting temperature at 2 uM by FRET-melting assay. It counts as nucleic-acid assay.
The subject of data set [2] is Non-structural protein 3/TRF2 G-quadruplex ribonucleic acid. The data set can be described thus: Inhibition of N-terminal His-tagged SARS-CoV-2 Nsp3 SUD-NM domain (413-676 residues)/SARS-CoV-2 TRF2 G-quadruplex RNA incubated for 2 hrs by HTRF assay. It counts as protein assay, Severe acute respiratory syndrome coronavirus 2. In general terms: Time-resolved FRET reads energy transfer from a long-lived donor to a nearby acceptor.

Data set [3] in a line: Cytotoxicity against human A549 cells harboring ACE2-CI33 assessed as cell viability by celltiter glo assay. It counts as toxicity, cell-based. In general terms: In ATP-based viability assays light output follows the ATP content of the culture.
Data set [4] can be described thus: Cytotoxicity against human Caco-2 cells harboring ACE2-CI33 assessed as cell viability by celltiter glo assay. The format is toxicity, cell-based.
Data set [5] concerns Quadruplex DNA. The data set can be described thus: Thermal stabilization of human telomeric G-quadruplex F21T DNA (FAM-5'-GGGTTAGGGTTAGGGTTAGGG-3'-TAMRA) assessed as change in half-width of melting temperature at 1 uM by FRET-melting assay. The format is nucleic-acid assay.
The test system of data set [6] is Quadruplex DNA. The data set can be described thus: Thermal stabilization of human telomeric G-quadruplex F21T DNA (FAM-5'-GGGTTAGGGTTAGGGTTAGGG-3'-TAMRA) assessed as change in half-width of melting temperature at 0.5 uM by FRET-melting assay. The format is nucleic-acid assay.

As to `CN(C)CCCCNCc1ccc(-c2cc(-c3ccc(CNCCCCN(C)C)cc3)c3ccn(-c4ccccc4)c3n2)cc1`, in the data set with Quadruplex DNA [1], the deltaTm1/2 amounted to 26.3 °C. In data set [2], the IC50 (in general, the concentration at which inhibition is half-maximal) stood at 223 nM.
For the compound `CC(C)CCCCNCc1ccc(-c2cc(-c3ccc(CNCCCCC(C)C)cc3)c3ccn(-c4ccccc4)c3c2)cc1`, the deltaTm1/2 in the data set with Quadruplex DNA [1] stood at 4 °C. In data set [2], this compound came in with an IC50 of more than 500 nM.
For the compound `CN1CCN(CCCCNCc2ccc(-c3ccc4ccc5ccc(-c6ccc(CNCCCCN7CCN(C)CC7)cc6)nc5c4n3)cc2)CC1`, the deltaTm1/2 with Quadruplex DNA [1] was 24.1 °C. For the same compound, the CC50 (as a rule, the concentration giving 50% cytotoxicity) in data set [3] is more than 10000 nM. This compound also came in with an IC50 in data set [2] of 31.4 nM.
As for `CN(C)CCCNCc1ccc(-c2nc(-c3ccc(CNCCCN(C)C)cc3)c3ccn(-c4ccc(CNCCCN(C)C)cc4)c3n2)cc1`, the deltaTm1/2 in the data set with Quadruplex DNA [1] was 34.9 °C. In addition, the CC50 at 75 h in data set [4] is not below 7200 nM. Also, in data set [2], it took 50 nM to reach half-maximal inhibition (IC50).
Take `CN(C)CCCCCNCc1ccc(-c2nc(-c3ccc(CNCCCCCN(C)C)cc3)c3ncn(-c4ccccc4)c3n2)cc1`: in the data set with Quadruplex DNA [1], the deltaTm1/2 came to 34 °C. The compound further showed a concentration for half-maximal inhibition (IC50) in data set [2] of 103 nM.
Consider `CCN(CC)CCCCNCc1ccc(-c2cc3c(ccn3-c3ccccc3)c(-c3ccc(CNCCCCN(CC)CC)cc3)n2)cc1`, for which the deltaTm1/2 in the data set with Quadruplex DNA [1] was determined as 28.7 °C. It took 446 nM to reach half-maximal inhibition in data set [2] (IC50).
`CN(C)CCCCNCc1ccc(-c2cc(-c3ccc(CNCCCCN(C)C)cc3)c3ccn(-c4ccccc4)c3c2)cc1`: the deltaTm1/2 in the data set on Quadruplex DNA [1] came to 23.7 °C. Moreover, the CC50 in data set [3] was found to be 2830 nM. Moreover, the CC50 at 75 h in data set [4] came out at 2140 nM. Besides, in data set [2], it took 75 nM to reach half-maximal inhibition (IC50).
In the case of `CN(C)CCCCNCc1ccc(-c2cn(-c3ccccc3)c3ncnc(-c4ccc(CNCCCCN(C)C)cc4)c23)cc1`, the deltaTm1/2 with Quadruplex DNA [1] turned out to be 13.1 °C. For the same compound, the IC50 in data set [2] is more than 500 nM.
Regarding `CN(C)CCCCNCc1ccc(-c2nc(-c3ccc(CNCCCCN(C)C)cc3)c3ncn(-c4ccccc4)c3n2)cc1`, the deltaTm1/2 in the data set with Quadruplex DNA [1] was 31.7 °C. Besides, in data set [2], the IC50 is 79 nM.
Take `CN(C)CCCCCNCc1ccc(-c2cc(-c3ccc(CNCCCCCN(C)C)cc3)c3ccn(-c4ccccc4)c3c2)cc1`: the deltaTm1/2 in the data set with Quadruplex DNA [1] was found to be 30.9 °C. The CC50 in data set [3] is 3010 nM. The CC50 at 75 h in data set [4] was 2320 nM. The compound also came in with an IC50 in data set [2] of 90 nM.
As to `CN(C)CCCCNCc1ccc(-c2nc(-c3ccc(CNCCCCN(C)C)cc3)c3ccn(-c4ccc(CNCCCCN(C)C)cc4)c3n2)cc1`, the results for the deltaTm1/2 in the data set with Quadruplex DNA [1] and with Quadruplex DNA [5] were more than 36 °C and 23.8 °C, respectively. The compound further came in with an IC50 in data set [2] of 48 nM.
With `CN(C)CCCCCNCc1ccc(-c2cc3c(ccn3-c3ccccc3)c(-c3ccc(CNCCCCCN(C)C)cc3)n2)cc1`, in the data set with Quadruplex DNA [1], the deltaTm1/2 worked out at 22.6 °C. The compound also yielded an IC50 in data set [2] of more than 200 nM.
Turning to `CN(C)CCCNCc1ccc(-c2nc(-c3ccc(CNCCCN(C)C)cc3)c3ccn(-c4ccccc4)c3n2)cc1`, the deltaTm1/2 in the data set on Quadruplex DNA [1] came to 25.9 °C. The compound further came in with an IC50 in data set [2] of 137 nM.
`CN(C)CCCCNCc1ccc(-c2cc3c(ccn3-c3ccccc3)c(-c3ccc(CNCCCCN(C)C)cc3)n2)cc1`: in the data set on Quadruplex DNA [1], the deltaTm1/2 amounted to 21 °C. In data set [2], this compound showed an IC50 of 87 nM.
As to `O=C(O[C@@H]1Cc2c(O)cc(O)cc2O[C@@H]1c1cc(O)c(=O)c2c(O)c(O)cc([C@H]3Oc4cc(O)cc(O)c4C[C@H]3OC(=O)c3cc(O)c(O)c(O)c3)c2c1)c1cc(O)c(O)c(O)c1`, the deltaTm1/2 in the data set with Quadruplex DNA [1] was determined as 0.9 °C.
With `CN(C)CCCCNCc1ccc(-c2nc(-c3ccccc3)c3ccn(-c4ccc(CNCCCCN(C)C)cc4)c3n2)cc1`, in the data set on Quadruplex DNA [1], the deltaTm1/2 is 26.4 °C. For the same compound, the IC50 in data set [2] stood at 97 nM.
As to `CN(C)CCCCNCc1ccc(-c2ccc3ccc4ccc(-c5ccc(CNCCCCN(C)C)cc5)nc4c3n2)cc1`, the deltaTm1/2 in the data set on Quadruplex DNA [1] stood at 18.5 °C. The CC50 in data set [3] was more than 10000 nM. This compound showed an IC50 in data set [2] of 31.2 nM.
In turn, `O=c1c(O)cc([C@H]2Oc3cc(O)cc(O)c3C[C@H]2O)cc2c([C@H]3Oc4cc(O)cc(O)c4C[C@H]3O)cc(O)c(O)c12` [THEAFLAVIN] came in with an IC50 in data set [2] of more than 500 nM.
Consider `CN(C)CCCCNCc1ccc(-c2nc(-c3ccc(CNCCCCN(C)C)cc3)c3c(ccn3-c3ccccc3)n2)cc1`, for which the deltaTm1/2 in the data set with Quadruplex DNA [1] is 18.6 °C. Besides, the IC50 in data set [2] was determined as 90 nM.
As for `C[n+]1cc(NC(=O)c2ccc3ccc4ccc(C(=O)Nc5cc6ccccc6[n+](C)c5)nc4c3n2)cc2ccccc21`, the deltaTm1/2 with Quadruplex DNA [6] came out at 21.2 °C.
Consider `CN(C)CCCCCNCc1ccc(-c2cn(-c3ccccc3)c3ncnc(-c4ccc(CNCCCCCN(C)C)cc4)c23)cc1`, for which, in the data set on Quadruplex DNA [1], the deltaTm1/2 was determined as 14.8 °C. Moreover, in data set [2], the IC50 amounted to 140 nM.
For the compound `CN1CCN(CCCCNCc2ccc(-c3cc(-c4ccc(CNCCCCN5CCN(C)CC5)cc4)c4ccn(-c5ccccc5)c4c3)cc2)CC1`, in the data set on Quadruplex DNA [1], the deltaTm1/2 worked out at 20.4 °C. The compound further came in with an IC50 in data set [2] of 74 nM.
`CN(C)CCCNCc1ccc(-c2cn(-c3ccc(CNCCCN(C)C)cc3)c3ncnc(-c4ccc(CNCCCN(C)C)cc4)c23)cc1`: the deltaTm1/2 in the data set with Quadruplex DNA [1] was found to be 20.3 °C. In addition, the midpoint of inhibition in data set [2], the IC50, lay at 46 nM.
On to `CN1CCN(CCCCNCc2ccc(-c3nc(-c4ccc(CNCCCCN5CCN(C)CC5)cc4)c4ncn(-c5ccccc5)c4n3)cc2)CC1`, for which the deltaTm1/2 with Quadruplex DNA [1] was 30.2 °C. It took 115 nM to reach half-maximal inhibition in data set [2] (IC50).
